Assay results taken from ChEMBL document CHEMBL5465560, “Selectivity Literature for EUbOPEN Chemogenomic Library” (2024).
Values belong to the compound of their own block, whether it stands above or below them.

Tests used:
[1] = target: T1, Atypical kinase COQ8B, mitochondrial (Homo sapiens) (UniProt Q96D53); experiment: Selectivity interaction (Ambit KINOMEscan and KiNATiv profiling in Jurkat cells) EUB0000090b ADCK4; assay type: cell-based; conditions: at 1 µM
T1 sequence (whole entry): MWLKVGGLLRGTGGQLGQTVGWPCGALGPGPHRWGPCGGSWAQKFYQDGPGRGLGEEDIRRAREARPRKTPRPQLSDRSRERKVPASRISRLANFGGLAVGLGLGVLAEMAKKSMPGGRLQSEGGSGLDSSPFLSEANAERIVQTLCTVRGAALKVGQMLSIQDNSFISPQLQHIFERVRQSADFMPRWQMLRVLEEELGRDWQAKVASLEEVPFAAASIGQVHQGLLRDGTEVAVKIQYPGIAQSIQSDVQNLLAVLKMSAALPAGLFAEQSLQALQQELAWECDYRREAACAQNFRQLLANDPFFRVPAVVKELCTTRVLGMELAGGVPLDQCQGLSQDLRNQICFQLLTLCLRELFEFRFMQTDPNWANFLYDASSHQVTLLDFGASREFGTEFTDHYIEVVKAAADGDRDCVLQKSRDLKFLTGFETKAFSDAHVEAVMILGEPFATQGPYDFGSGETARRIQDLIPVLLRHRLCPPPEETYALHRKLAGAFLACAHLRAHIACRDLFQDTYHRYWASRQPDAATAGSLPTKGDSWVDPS

[2] = target: Serine/threonine-protein kinase PLK1 (Homo sapiens, UniProt P53350); experiment: Selectivity interaction (KinomeScan (DiscoverX)) EUB0000655a PLK1; conditions: at 10 µM
[3] = system: Tyrosine-protein kinase ABL1 (Homo sapiens), P00519 [F317I]; experiment: Selectivity interaction (KinomeScan (DiscoverX)) EUB0001079a ABL1; conditions: at 1 µM
[4] = target: T2, Activin receptor type-1 (Homo sapiens) (UniProt Q04771); experiment: Selectivity interaction (KinomeScan (DiscoverX)) EUB0001079a ACVR1; conditions: at 1 µM
T2 sequence (whole entry): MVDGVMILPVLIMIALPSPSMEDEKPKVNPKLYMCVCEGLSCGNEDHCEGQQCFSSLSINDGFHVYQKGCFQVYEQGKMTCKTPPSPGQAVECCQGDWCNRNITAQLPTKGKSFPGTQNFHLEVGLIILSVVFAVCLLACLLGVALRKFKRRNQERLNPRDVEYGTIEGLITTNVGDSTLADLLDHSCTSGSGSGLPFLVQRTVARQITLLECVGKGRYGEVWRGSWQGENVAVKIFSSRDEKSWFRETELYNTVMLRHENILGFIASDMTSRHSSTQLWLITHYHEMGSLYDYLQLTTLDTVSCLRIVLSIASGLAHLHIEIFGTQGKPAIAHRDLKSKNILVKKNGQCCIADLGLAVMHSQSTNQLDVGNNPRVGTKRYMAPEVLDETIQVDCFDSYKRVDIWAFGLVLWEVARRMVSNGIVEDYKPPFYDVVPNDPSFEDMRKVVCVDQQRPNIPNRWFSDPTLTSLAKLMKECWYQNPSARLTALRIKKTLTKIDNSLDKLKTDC

[5] = target: T3, Serine/threonine-protein kinase MAK (Homo sapiens) (UniProt P20794); conditions: at 10 µM
T3 sequence (whole entry): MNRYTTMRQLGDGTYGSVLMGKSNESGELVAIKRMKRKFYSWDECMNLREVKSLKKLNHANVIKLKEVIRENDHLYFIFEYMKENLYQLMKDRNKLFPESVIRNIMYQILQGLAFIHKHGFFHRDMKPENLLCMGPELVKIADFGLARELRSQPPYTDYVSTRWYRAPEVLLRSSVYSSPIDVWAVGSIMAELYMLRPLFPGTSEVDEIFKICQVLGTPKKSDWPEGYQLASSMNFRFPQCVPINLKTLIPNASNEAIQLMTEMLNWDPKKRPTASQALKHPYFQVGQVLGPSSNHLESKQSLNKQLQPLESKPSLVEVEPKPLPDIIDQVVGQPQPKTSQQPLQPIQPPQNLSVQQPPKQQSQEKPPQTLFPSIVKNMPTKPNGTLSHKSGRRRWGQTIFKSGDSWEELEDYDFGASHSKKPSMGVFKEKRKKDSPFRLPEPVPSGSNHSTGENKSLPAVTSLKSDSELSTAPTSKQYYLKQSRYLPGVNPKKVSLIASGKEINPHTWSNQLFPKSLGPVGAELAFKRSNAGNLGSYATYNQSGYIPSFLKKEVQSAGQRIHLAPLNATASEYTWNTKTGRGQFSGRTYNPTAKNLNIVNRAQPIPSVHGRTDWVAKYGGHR

[6] = target: T4, Tyrosine-protein kinase Mer (Homo sapiens) (UniProt Q12866); experiment: Selectivity interaction (LanthaScreen Eu Kinase Binding Assay) EUB0001632a MERTK; conditions: at 10 µM
T4 sequence (whole entry): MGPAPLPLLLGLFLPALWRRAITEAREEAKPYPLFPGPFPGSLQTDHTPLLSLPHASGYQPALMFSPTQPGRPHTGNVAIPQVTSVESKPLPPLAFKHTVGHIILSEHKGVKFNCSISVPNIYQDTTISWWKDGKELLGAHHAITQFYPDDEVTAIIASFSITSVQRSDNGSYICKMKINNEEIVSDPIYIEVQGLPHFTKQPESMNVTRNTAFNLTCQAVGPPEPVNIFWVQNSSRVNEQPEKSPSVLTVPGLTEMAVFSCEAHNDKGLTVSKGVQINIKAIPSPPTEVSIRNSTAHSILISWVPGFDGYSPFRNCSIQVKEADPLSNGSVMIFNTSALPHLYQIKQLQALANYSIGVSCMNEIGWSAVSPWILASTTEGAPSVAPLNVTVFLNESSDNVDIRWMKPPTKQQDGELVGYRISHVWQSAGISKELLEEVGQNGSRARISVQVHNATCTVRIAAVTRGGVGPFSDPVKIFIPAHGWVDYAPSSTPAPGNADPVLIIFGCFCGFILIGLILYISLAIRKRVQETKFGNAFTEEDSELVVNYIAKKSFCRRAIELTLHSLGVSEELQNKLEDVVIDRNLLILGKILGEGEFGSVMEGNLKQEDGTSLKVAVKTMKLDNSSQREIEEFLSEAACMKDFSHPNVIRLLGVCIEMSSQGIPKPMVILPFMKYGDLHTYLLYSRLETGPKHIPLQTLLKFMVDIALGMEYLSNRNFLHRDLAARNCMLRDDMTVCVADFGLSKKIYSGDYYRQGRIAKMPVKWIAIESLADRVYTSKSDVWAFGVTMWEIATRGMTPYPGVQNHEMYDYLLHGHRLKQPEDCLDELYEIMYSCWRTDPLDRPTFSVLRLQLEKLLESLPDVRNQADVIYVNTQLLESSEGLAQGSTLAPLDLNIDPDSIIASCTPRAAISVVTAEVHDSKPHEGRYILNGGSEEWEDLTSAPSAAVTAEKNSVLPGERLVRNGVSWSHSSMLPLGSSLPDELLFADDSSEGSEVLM

Sequence of Serine/threonine-protein kinase PLK1 (P53350 whole entry): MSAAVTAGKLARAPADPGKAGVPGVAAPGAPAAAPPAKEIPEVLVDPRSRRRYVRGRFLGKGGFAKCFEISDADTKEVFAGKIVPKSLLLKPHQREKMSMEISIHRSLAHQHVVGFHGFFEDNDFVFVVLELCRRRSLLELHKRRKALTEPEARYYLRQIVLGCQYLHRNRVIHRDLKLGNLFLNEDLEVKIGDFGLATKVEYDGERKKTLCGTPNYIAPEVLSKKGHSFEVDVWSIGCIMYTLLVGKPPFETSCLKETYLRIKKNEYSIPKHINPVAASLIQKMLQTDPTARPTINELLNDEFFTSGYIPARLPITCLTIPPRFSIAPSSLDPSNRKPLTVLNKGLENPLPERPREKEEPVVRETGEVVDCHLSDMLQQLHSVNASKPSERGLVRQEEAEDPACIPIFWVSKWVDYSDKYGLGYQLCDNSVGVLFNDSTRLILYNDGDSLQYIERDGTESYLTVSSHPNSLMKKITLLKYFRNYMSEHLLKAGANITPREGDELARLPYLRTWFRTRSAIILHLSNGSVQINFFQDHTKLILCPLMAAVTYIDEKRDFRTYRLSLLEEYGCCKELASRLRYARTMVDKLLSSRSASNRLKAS
Sequence of Tyrosine-protein kinase ABL1 (Homo sapiens), P00519 [F317I] (P00519 whole entry F317I): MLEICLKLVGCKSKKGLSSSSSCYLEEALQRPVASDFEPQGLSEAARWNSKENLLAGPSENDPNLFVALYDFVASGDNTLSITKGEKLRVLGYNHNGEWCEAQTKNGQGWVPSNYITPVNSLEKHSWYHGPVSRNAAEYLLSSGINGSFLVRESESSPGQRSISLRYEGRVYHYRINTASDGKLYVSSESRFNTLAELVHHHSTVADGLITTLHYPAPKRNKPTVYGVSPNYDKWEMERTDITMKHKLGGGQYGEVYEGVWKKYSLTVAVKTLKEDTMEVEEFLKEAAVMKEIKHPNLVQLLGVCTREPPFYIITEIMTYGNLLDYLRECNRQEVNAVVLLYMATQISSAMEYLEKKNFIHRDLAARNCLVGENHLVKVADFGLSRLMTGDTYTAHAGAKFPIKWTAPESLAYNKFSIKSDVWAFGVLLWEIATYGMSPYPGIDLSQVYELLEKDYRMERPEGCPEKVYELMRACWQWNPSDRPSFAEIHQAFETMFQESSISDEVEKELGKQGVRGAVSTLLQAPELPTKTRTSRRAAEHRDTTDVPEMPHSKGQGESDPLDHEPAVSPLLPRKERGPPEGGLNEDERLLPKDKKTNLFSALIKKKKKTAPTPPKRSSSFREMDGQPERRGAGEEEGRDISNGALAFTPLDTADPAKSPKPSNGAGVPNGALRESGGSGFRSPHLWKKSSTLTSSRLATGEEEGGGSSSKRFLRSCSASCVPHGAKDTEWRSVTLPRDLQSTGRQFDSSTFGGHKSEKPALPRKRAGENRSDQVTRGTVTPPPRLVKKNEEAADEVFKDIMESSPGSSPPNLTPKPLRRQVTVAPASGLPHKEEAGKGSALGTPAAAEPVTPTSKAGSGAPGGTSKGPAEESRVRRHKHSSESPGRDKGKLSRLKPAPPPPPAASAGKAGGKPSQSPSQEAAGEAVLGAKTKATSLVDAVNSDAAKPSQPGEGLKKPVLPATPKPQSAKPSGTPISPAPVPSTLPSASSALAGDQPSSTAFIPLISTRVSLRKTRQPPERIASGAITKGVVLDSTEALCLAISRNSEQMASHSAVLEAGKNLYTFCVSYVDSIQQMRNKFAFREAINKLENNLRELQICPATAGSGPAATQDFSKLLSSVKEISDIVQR

Structure (SMILES): CN(C)C/C=C/C(=O)Nc1ccc(C(=O)N2CCCC(Nc3ncc(Cl)c(-c4c[nH]c5ccccc45)n3)C2)cc1 (stereo unspecified)
% of control [1]: 69%

Structure (SMILES): CN(C)CCOc1ccc(-c2nc(-c3ccncc3)c(-c3ccc4c(c3)CC/C4=N\O)[nH]2)cc1
% of control [2]: 100%

Structure (SMILES): Nc1cnc(N2CCc3cc(S(=O)(=O)Nc4c(F)cc(Cl)cc4F)cc(N4CCCC4=O)c32)nc1 [TP-020n]
% of control [3]: 100%
% of control [4]: 100%

Structure (SMILES): Cc1cc([C@@H](C)Nc2ccccc2C(=O)O)c2nc(N3CCOCC3)cc(=O)n2c1 [AZD-6482]
% of control [5]: 67%

% of inhibition [6]: -48.1%
Structure (SMILES): Cn1cc(-n2cnc3c(NCc4nc5cc(Cl)c(Cl)cc5[nH]4)nc(N4CCOCC4)nc32)cn1
